Calls of active or inactive are those of the source.
Tests used:
[1] = molecular target: Sphingosine 1-phosphate receptor 2 (Homo sapiens, UniProt O95136); test: Dose Response Cell Based Assay for Agonists of the S1P2 Receptor of Purchased Analogues. [Related pubchem assays: 729, 843, 854, 736 ]; type: functional
Leucine aminopeptidase = molecular target: T1, Leucine aminopeptidase (Plasmodium falciparum 3D7, UniProt Q8IL11); test: P. falciparum M17LAP inhibitors, primary screen, biochemical, fluorogenic H-Leu-NHMec substrate, 1536-well (AID 1619); type: functional
T1 sequence (Q8IL11 whole entry): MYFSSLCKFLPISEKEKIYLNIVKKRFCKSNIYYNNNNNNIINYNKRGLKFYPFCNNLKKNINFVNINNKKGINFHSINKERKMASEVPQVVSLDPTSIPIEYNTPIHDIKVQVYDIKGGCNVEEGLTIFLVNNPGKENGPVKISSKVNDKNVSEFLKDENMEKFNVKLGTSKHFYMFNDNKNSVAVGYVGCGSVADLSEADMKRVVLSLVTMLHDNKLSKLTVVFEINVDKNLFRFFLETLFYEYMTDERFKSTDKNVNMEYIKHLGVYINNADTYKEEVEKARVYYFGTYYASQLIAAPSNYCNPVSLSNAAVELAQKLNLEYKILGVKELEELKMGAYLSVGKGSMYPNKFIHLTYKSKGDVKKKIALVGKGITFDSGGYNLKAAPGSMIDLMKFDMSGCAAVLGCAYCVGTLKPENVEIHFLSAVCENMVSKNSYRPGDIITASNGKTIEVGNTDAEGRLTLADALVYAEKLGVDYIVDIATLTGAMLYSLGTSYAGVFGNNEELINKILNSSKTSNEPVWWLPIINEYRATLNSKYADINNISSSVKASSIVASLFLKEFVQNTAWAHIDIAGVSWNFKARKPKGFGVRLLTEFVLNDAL

Aspartyl aminopeptidase = molecular target: T2, Aspartyl aminopeptidase (Plasmodium falciparum 3D7, UniProt Q8I2J3); test: Counterscreen for inhibitors of M1 and M17 aminopeptidases: QFRET-based biochemical high throughput dose response assay for inhibitors of the Plasmodium falciparum M18 Aspartyl Aminopeptidase (PFM18AAP). [Related PubChem assays: 1619 (Screening assay (M17LAP inhibitors).), 1445 (Screening assay (M1AAP inhibitors).)]
T2 sequence (Q8I2J3 whole entry): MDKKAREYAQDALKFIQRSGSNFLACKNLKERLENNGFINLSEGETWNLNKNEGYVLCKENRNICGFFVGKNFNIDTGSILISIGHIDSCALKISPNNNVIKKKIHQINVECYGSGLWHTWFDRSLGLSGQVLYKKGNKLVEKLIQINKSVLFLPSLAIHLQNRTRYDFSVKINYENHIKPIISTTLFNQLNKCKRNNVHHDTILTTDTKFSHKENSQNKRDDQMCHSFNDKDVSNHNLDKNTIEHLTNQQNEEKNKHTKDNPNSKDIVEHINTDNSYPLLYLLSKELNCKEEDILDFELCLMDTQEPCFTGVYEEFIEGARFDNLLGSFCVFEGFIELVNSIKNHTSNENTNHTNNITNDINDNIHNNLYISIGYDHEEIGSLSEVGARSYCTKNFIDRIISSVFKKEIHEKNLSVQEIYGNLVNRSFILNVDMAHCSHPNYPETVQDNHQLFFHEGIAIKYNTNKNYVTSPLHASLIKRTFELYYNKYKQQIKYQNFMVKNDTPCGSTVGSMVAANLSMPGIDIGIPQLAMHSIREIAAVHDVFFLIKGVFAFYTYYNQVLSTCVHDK

Procathepsin L = Procathepsin L (Homo sapiens, UniProt P07711); test: CTSL1 protease inhibition – biochemical, QFRET, 1536-well, counter-screen for M1/M17 aminopeptidase inhibitor project, dose response (AID 2214)
Chain of Procathepsin L (P07711 whole entry): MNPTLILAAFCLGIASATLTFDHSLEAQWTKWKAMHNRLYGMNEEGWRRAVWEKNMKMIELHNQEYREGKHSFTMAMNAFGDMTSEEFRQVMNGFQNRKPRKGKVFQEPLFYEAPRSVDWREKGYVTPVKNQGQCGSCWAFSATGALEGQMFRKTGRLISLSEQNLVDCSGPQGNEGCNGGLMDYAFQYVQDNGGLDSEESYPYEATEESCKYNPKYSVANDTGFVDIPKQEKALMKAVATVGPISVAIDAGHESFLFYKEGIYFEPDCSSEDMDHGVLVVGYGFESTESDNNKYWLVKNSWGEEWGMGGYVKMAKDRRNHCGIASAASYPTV

[2] = molecular target: T3, Replicative DNA helicase DnaB (Mycobacterium tuberculosis, UniProt P9WMR3); test: DnaB intein splicing inhibitors, dose response, biochemical, cell-free fluorescence (AID 449749); type: functional
T3 sequence (P9WMR3 whole entry): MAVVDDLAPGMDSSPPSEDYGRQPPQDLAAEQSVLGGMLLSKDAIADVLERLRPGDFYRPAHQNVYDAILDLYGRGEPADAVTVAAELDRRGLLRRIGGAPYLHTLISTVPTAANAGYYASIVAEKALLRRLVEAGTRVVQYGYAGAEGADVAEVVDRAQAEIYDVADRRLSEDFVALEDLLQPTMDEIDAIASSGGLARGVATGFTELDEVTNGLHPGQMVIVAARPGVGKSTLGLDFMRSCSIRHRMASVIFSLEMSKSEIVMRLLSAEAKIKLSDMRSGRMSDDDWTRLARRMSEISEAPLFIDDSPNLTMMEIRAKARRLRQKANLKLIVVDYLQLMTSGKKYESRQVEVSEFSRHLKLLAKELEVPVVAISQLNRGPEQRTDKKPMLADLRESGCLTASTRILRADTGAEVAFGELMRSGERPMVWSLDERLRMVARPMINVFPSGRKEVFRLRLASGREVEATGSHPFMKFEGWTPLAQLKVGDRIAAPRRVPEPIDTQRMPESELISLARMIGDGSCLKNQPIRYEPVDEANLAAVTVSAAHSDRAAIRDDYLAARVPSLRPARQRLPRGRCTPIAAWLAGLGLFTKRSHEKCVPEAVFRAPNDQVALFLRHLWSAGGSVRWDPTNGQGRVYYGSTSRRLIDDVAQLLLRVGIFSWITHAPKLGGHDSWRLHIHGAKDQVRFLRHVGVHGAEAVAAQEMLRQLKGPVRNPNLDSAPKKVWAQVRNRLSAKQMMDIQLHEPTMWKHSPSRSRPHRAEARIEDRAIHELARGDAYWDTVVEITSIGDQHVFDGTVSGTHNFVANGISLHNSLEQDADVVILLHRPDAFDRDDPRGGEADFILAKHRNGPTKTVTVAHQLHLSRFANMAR

Protein RecA = molecular target: T4, Protein RecA (Mycobacterium tuberculosis, UniProt P9WHJ3); test: Fluorescence Cell-Free Homogeneous Dose Retest to Identify Inhibitors of RecA-Intein Splicing Activity. [Related pubchem assays (depositor defined):AID2097, AID2223, AID489010, AID492950]; type: functional
T4 sequence (P9WHJ3 whole entry): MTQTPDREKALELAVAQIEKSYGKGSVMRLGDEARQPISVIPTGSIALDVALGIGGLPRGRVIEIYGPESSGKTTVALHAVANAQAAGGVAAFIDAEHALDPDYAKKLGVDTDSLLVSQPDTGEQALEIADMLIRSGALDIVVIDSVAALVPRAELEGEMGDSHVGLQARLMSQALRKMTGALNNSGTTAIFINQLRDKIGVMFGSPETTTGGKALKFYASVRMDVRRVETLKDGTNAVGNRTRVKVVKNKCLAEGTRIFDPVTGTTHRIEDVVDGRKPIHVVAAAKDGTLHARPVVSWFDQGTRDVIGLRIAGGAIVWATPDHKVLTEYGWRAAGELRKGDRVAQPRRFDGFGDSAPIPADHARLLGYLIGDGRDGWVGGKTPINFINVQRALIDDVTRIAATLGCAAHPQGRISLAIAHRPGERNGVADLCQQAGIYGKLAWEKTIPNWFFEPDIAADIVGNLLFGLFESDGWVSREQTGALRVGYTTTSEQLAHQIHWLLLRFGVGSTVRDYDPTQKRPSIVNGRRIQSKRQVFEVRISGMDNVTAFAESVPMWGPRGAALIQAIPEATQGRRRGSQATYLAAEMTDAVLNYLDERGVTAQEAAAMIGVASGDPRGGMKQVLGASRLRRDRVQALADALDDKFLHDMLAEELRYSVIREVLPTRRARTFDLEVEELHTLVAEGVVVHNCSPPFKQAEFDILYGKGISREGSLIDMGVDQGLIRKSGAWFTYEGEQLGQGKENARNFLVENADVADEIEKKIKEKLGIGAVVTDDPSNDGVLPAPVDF

[3] = molecular target: Dual specificity tyrosine-phosphorylation-regulated kinase 1A (Rattus norvegicus, UniProt Q63470); type: biochemical, Homo sapiens
[4] = molecular target: 5-hydroxytryptamine receptor 1E (Homo sapiens, UniProt P28566); test: Counterscreen assay for S1P3 antagonists: Dose response cell-based high throughput screening assay to identify antagonists of the 5-Hydroxytryptamine Receptor Subtype 1E (5HT1E). [Related pubchem assays: 1429, 485 ]; type: functional
Chain of 5-hydroxytryptamine receptor 1E (P28566 whole entry): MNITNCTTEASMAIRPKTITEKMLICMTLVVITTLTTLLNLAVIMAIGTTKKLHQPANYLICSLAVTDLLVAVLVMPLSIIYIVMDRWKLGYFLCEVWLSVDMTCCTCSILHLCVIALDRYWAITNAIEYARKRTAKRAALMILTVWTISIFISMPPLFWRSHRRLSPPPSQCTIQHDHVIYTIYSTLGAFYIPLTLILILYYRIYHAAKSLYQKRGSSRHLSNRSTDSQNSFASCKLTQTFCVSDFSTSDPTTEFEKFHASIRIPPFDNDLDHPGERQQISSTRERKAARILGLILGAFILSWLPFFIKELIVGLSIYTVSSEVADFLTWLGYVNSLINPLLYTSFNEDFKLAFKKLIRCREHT

[5] = molecular target: Sphingosine 1-phosphate receptor 3 (Homo sapiens, UniProt Q99500); test: Dose response cell-based high throughput screening assay for antagonists of the Sphingosine 1-Phosphate Receptor 3 (S1P3). [Related pubchem assays: 1429, 485 ]; type: functional
Chain of Sphingosine 1-phosphate receptor 3 (Q99500 whole entry): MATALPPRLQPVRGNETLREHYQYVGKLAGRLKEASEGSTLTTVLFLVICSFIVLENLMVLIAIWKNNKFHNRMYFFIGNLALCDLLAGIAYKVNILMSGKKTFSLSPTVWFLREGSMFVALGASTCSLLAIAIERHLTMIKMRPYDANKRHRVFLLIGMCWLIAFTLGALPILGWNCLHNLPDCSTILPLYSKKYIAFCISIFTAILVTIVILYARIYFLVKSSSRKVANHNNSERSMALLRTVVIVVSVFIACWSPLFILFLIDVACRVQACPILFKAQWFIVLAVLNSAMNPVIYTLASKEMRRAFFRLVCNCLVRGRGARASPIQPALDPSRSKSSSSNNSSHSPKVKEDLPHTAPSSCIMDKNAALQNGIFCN

Chain of Sphingosine 1-phosphate receptor 2 (O95136 whole entry): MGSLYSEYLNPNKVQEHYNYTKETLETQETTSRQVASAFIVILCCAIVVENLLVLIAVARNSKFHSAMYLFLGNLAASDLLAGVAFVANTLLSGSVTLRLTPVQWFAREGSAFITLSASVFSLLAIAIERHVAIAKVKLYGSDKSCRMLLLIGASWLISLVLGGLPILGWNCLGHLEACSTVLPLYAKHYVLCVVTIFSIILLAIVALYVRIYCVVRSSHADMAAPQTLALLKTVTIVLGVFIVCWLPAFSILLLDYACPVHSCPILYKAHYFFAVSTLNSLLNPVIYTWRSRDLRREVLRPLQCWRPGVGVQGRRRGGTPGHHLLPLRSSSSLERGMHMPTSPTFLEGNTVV

## Cc1cc(C(=O)COC(=O)C2CSC3(C)CCC(=O)N23)c(C)n1Cc1ccccc1 (centres undefined)
[1]
  EC50: > 30 µM (not active)

## COc1ccc(-c2cc(=O)[nH][nH]2)cc1
Leucine aminopeptidase
  IC50: 2.97 µM (active)
Aspartyl aminopeptidase
  IC50: > 73.5 µM (not active)
Procathepsin L
  IC50: > 59.6 µM (not active)
[2]
  AC50: 0.882 µM (active)
Protein RecA
  EC50: 0.444 µM (active)
[3]
  AC50: 5.54 µM (active)

## Cc1ccc(NC(=O)C(OC(=O)c2ccc(F)cc2)c2ccccc2)cc1Cl (centres undefined)
[4]
  IC50: 15.6 µM (not active)
[5]
  IC50: 6.4 µM (active)

Source: ChEMBL document CHEMBL1201862, “PubChem BioAssay data set” (2004)
